The source of these data is patent US5086066A, “Method of providing anxiolytic and antipsychotic treatment with substituted benzamides” (priority 1988, dated 1992).

Data set [1] relates to rats. As to the kind of experiment: hyperactivity induced by injection of amphetamine into the nucleus accumbens (motor activity), antipsychotic activity. The data set is classed as in vivo. On the procedure: Tests were conducted to measure the antipsychotic activity of the compounds of the invention. In particular, the hyperactivity induced in rats by the perfusion of amphetamine into the nucleus accumbens was evaluated. This test consists in determining the effect of the compounds of the invention on hyperactivity produced in rats by the injection of amphetamine into the nucleus accumbens. Hyperactivity was induced by injecting 20 μg of amphetamine bilaterally into the nucleus accumbens. The compounds of the invention were administered subcutaneously at doses of 1 mg/kg and 10 mg/kg, 40 minutes before the injection of amphetamine. For each dose of test product, a group of 5 animals was used. A group treated only with amphetamine and a reference group which received only an inert vehicle comprised 10 animals.
Immediately after the injection of amphetamine, the rats were placed in individual cages equipped with photoelectric cells. Motor activity, characterized by the number of shifts from place to place in these cages, was determined by the number of interruptions of a light beam striking these cells. The measurements were made during the 80 minutes following the injection of amphetamine. The results, expressed as the number of shifts from place to place per 10-minute period, are collated in Table 2.

The test system of data set [2] is mice. The experiment in a line: two compartment (dark and light) box test, anxiolytic activity. It counts as in vivo. Particulars: for % time in black compartment / Black compartment rearings/5 min / Black compartment transits/5 min / Delay white → black / White compartment rearings/5 min / White compartment transits/5 min: 40 min after administration, S.E.M. <12.6%, n = 5; for minimal effective dose: Mus musculus, sc, 40 min, subcutaneous, mice, read-out: dose at and above which anxiolytic activity is manifested. On the procedure: The two compartment box test was conducted in mice to evaluate anxiolytic activity. This test is based on a natural aversion of mice to light. The apparatus used is a box containing two compartments, one of which is dark (labeled "black compartment" in the Table 1) and the other illuminated (labeled "white compartment" in Table 1). The apparatus is designed to allow the animal to choose between staying in either of the two compartments. Under normal conditions, the mice avoid light and usually remain in the dark compartment. Under the influence of an anxiolytic agent, however, exploration of the illustrated compartment predominates. The test consists of placing each mouse in the center of the illuminated compartment and observing the animal's behavior by video system for 5 minutes. The number of exploratory rearings and the number of displacements (the crossing of lines traced on the floor of each compartment constitute "passages") are then recorded for each compartment. An anxiolytic effect induced by a drug, such as diazepam, is characterized by an increase in the number of exploratory rearings and in the number of passages into the illuminated compartment. The compounds of the invention were injected subcutaneously at variable doses, each dose being administered to a group of 5 mice.

Data set [3] can be described thus: acute toxicity, median lethal dose (LD50) intravenously. To be noted: mouse, in vivo, iv. From the text:
The compounds of the invention were also subjected to a study of acute toxicity when injected intravenously in male mice and female mice, which enabled the median lethal doses (LD50) to be determined.

Molecules are shown by their SMILES.

Regarding `CC(N)Cc1ccccc1` (centres unmarked) [Amphetamine, amphetamine, reference compound], the Motor activity in data set [1] (amphetamine alone 20 μg bilaterally into nucleus accumbens, time 10 min) is recorded as 31 ± 4 shifts from place to place/10; in data set [1] (amphetamine alone 20 μg bilaterally into nucleus accumbens, time 20 min) it was 48 ± 5 shifts from place to place/10; in data set [1] (amphetamine alone 20 μg bilaterally into nucleus accumbens, time 30 min), 66 ± 7 shifts from place to place/10; in data set [1] (amphetamine alone 20 μg bilaterally into nucleus accumbens, time 40 min), 59 ± 7 shifts from place to place/10; in data set [1] (amphetamine alone 20 μg bilaterally into nucleus accumbens, time 50 min), 36 ± 5 shifts from place to place/10; in data set [1] (amphetamine alone 20 μg bilaterally into nucleus accumbens, time 60 min), 29 ± 4 shifts from place to place/10. For the same molecule, the Motor activity in data set [1] (amphetamine alone 20 μg bilaterally into nucleus accumbens, time 70 min) is listed as 19 ± 3 shifts from place to place/10; in data set [1] (amphetamine alone 20 μg bilaterally into nucleus accumbens, time 80 min) it was 8 ± 3 shifts from place to place/10.

One may read the LD50 as the dose expected to kill half of the subjects tested. Low values mean greater toxicity, high ones lower toxicity. For the molecule `C=CCN1CCCC1CNC(=O)c1cc(Cl)c(NC2=NC(C)CN2)cc1OC` (centres unmarked) [Compound 2, N-(1-allyl-2-pyrrolidinylmethyl)-2-methoxy-4-[(4,5-dihydro-4-methyl-1H-imidazol-2-yl)amino]-5-chlorobenzamide], in data set [2] (0.01 mg/kg s.c.), the “% time in black compartment” value came to 49%, the “Black compartment rearings/5 min” value is reported as 27 rearings/5 min, the “Black compartment transits/5 min” value is 30 transits/5 min and the “Delay white → black” value stood at 18 s. Also, in data set [2] (0.01 mg/kg s.c.), the “White compartment rearings/5 min” value came out at 43 rearings/5 min and the “White compartment transits/5 min” value stood at 51 transits/5 min. Also, in data set [2] (0.1 mg/kg s.c.), the “% time in black compartment” value came to 29%, the “Black compartment rearings/5 min” value is listed as 20 rearings/5 min, the “Black compartment transits/5 min” value stood at 25 transits/5 min and the “Delay white → black” value stood at 20 s. Also, in data set [2] (0.1 mg/kg s.c.), the “White compartment rearings/5 min” value amounted to 83 rearings/5 min and the “White compartment transits/5 min” value was found to be 80 transits/5 min. In addition, the minimal effective dose in data set [2] is at least 0.01 mg/kg. In data set [3] (female mice), this molecule came in with an LD50 of 42 mg/kg. In data set [3] (male mice), this molecule showed an LD50 of 42 mg/kg.

`CCN1CCCC1CNC(=O)c1cc(Br)c(NC2=NC(C)CN2)cc1OC` (centres unmarked) [Compound 4, N-(1-ethyl-2-pyrrolidinylmethyl)-2-methoxy-4-[(4,5-dihydro-4-methyl-1H-imidazol-2-yl)amino]-5-bromobenzamide]: the “% time in black compartment” value in data set [2] (0.0001 mg/kg s.c.) worked out at 27%; in data set [2] (0.01 mg/kg s.c.), 31%; in data set [2] (0.1 mg/kg s.c.) it was 34%. Further, the figures for the “Black compartment rearings/5 min” value in data set [2] (0.0001 mg/kg s.c.), in data set [2] (0.01 mg/kg s.c.) and in data set [2] (0.1 mg/kg s.c.) were 19 rearings/5 min, 15 rearings/5 min and 16 rearings/5 min, respectively. Besides, the “Black compartment transits/5 min” value in data set [2] (0.0001 mg/kg s.c.) is recorded as 21 transits/5 min; in data set [2] (0.01 mg/kg s.c.), 20 transits/5 min; in data set [2] (0.1 mg/kg s.c.), 24 transits/5 min. The results for the “Delay white → black” value in data set [2] (0.0001 mg/kg s.c.), in data set [2] (0.01 mg/kg s.c.) and in data set [2] (0.1 mg/kg s.c.) were 23 s, 22 s and 38 s, respectively. For the same molecule, the “White compartment rearings/5 min” value in data set [2] (0.0001 mg/kg s.c.) was 73 rearings/5 min; in data set [2] (0.01 mg/kg s.c.) it was 82 rearings/5 min; in data set [2] (0.1 mg/kg s.c.) it was 78 rearings/5 min. Further, the figures for the “White compartment transits/5 min” value in data set [2] (0.0001 mg/kg s.c.), in data set [2] (0.01 mg/kg s.c.) and in data set [2] (0.1 mg/kg s.c.) were 82 transits/5 min, 83 transits/5 min and 99 transits/5 min, respectively. For the same molecule, the minimal effective dose in data set [2] is at least 0.0001 mg/kg. For the same molecule, the Motor activity is 34 ± 8 shifts from place to place/10 minutes in data set [1] (1 mg/kg s.c. 40 min before amphetamine 20 μg, time 10 min); 60 ± 13 shifts from place to place/10 minutes in data set [1] (1 mg/kg s.c. 40 min before amphetamine 20 μg, time 20 min); 40 ± 10 shifts from place to place/10 minutes in data set [1] (1 mg/kg s.c. 40 min before amphetamine 20 μg, time 30 min); 38 ± 13 shifts from place to place/10 minutes in data set [1] (1 mg/kg s.c. 40 min before amphetamine 20 μg, time 40 min); 37 ± 10 shifts from place to place/10 minutes in data set [1] (1 mg/kg s.c. 40 min before amphetamine 20 μg, time 50 min); 16 ± 2 shifts from place to place/10 minutes in data set [1] (1 mg/kg s.c. 40 min before amphetamine 20 μg, time 60 min). In addition, the Motor activity in data set [1] (1 mg/kg s.c. 40 min before amphetamine 20 μg, time 70 min) is 8 ± 3 shifts from place to place/10 minutes; in data set [1] (1 mg/kg s.c. 40 min before amphetamine 20 μg, time 80 min) it was 4 ± 2 shifts from place to place/10 minutes; in data set [1] (10 mg/kg s.c. 40 min before amphetamine 20 μg, time 10 min) it was 38 ± 7 shifts from place to place/10 minutes; in data set [1] (10 mg/kg s.c. 40 min before amphetamine 20 μg, time 20 min) it was 8 ± 1.4 shifts from place to place/10 minutes; in data set [1] (10 mg/kg s.c. 40 min before amphetamine 20 μg, time 30 min), 9 ± 3 shifts from place to place/10 minutes; in data set [1] (10 mg/kg s.c. 40 min before amphetamine 20 μg, time 40 min), 11 ± 1.6 shifts from place to place/10 minutes. Also, the Motor activity in data set [1] (10 mg/kg s.c. 40 min before amphetamine 20 μg, time 50 min) is reported as 5 ± 1 shifts from place to place/10 minutes; in data set [1] (10 mg/kg s.c. 40 min before amphetamine 20 μg, time 60 min) it was 2 ± 1 shifts from place to place/10 minutes. Moreover, the LD50 in data set [3] (female mice) came to 18 mg/kg; in data set [3] (male mice) it was 15.5 mg/kg.

In the case of `CCN1CCCC1CNC(=O)c1cc(Cl)c(NC2=NC(C)CN2)cc1OC` (centres unmarked) [Compound 5, N-(1-ethyl-2-pyrrolidinylmethyl)-2-methoxy-4-[(4,5-dihydro-4-methyl-1H-imidazol-2-yl)amino]-5-chlorobenzamide], in data set [2] (1 mg/kg s.c.), the “% time in black compartment” value stood at 32%, the “Black compartment rearings/5 min” value stood at 14 rearings/5 min, the “Black compartment transits/5 min” value was determined as 19 transits/5 min and the “Delay white → black” value was 23 s. In data set [2] (1 mg/kg s.c.), the “White compartment rearings/5 min” value came out at 65 rearings/5 min and the “White compartment transits/5 min” value was 89 transits/5 min. Moreover, in data set [2] (10 mg/kg s.c.), the “% time in black compartment” value was found to be 32%, the “Black compartment rearings/5 min” value came to 15 rearings/5 min, the “Black compartment transits/5 min” value is recorded as 16 transits/5 min and the “Delay white → black” value was 22 s. Moreover, in data set [2] (10 mg/kg s.c.), the “White compartment rearings/5 min” value was determined as 68 rearings/5 min and the “White compartment transits/5 min” value was 80 transits/5 min.

`CCN(CC)CCNC(=O)c1cc(Br)c(NC2=NCCN2)cc1OC` [Compound 6, N-[2-(diethylamino)ethyl]-2-methoxy-4-[(4,5-dihydro-1H-imidazol-2-yl)amino]-5-bromobenzamide]: in data set [2] (0.1 mg/kg s.c.), the “% time in black compartment” value stood at 27%, the “Black compartment rearings/5 min” value was 39 rearings/5 min, the “Black compartment transits/5 min” value worked out at 50 transits/5 min and the “Delay white → black” value was found to be 13 s. Also, in data set [2] (0.1 mg/kg s.c.), the “White compartment rearings/5 min” value was 40 rearings/5 min and the “White compartment transits/5 min” value was 48 transits/5 min. The molecule also returned an LD50 in data set [3] (female mice) of 118 mg/kg. This molecule also returned an LD50 in data set [3] (male mice) of 103 mg/kg.

For `CCN(CC)CCNC(=O)c1cc(Br)c(NC2=NC(C)CN2)cc1OC` (centres unmarked) [Compound 3, N-[2-(diethylamino)ethyl]-2-methoxy-4-[(4,5-dihydro-4-methyl-1H-imidazol-2-yl)amino]-5-bromo-benzamide], in data set [2] (0.1 mg/kg s.c.), the “% time in black compartment” value is given as 30%, the “Black compartment rearings/5 min” value worked out at 18 rearings/5 min, the “Black compartment transits/5 min” value is recorded as 18 transits/5 min and the “Delay white → black” value was 23 s. In data set [2] (0.1 mg/kg s.c.), the “White compartment rearings/5 min” value is on record as 97 rearings/5 min and the “White compartment transits/5 min” value was determined as 104 transits/5 min. The molecule further showed a 50% lethal dose (LD50) in data set [3] (female mice) of 24 mg/kg. In data set [3] (male mice), this molecule displayed an LD50 of 22 mg/kg.

As for `CCN(CC)CCNC(=O)c1cc(Cl)c(NC2=NCCO2)cc1OC` [Compound 7, N-[2-(diethylamino)ethyl]-2-methoxy-4-[(4,5-dihydro-2-oxazolyl)amino]-5-chlorobenzamide], in data set [2] (0.1 mg/kg s.c.), the “% time in black compartment” value is given as 27%, the “Black compartment rearings/5 min” value is 16 rearings/5 min, the “Black compartment transits/5 min” value worked out at 16 transits/5 min and the “Delay white → black” value came out at 24 s. In addition, in data set [2] (0.1 mg/kg s.c.), the “White compartment rearings/5 min” value came to 69 rearings/5 min and the “White compartment transits/5 min” value was found to be 68 transits/5 min.
